Laboratory results taken from ChEMBL document CHEMBL1150976, “The selectivity of protein kinase inhibitors: a further update” (Biochem J, 2007).

Key:
[1] = target: T1, Serine/threonine-protein kinase Chk1 (Homo sapiens) (UniProt O14757); test: Percentage CHK1 activity remaining in the presence of 25uM inhibitor
T1 sequence (whole entry): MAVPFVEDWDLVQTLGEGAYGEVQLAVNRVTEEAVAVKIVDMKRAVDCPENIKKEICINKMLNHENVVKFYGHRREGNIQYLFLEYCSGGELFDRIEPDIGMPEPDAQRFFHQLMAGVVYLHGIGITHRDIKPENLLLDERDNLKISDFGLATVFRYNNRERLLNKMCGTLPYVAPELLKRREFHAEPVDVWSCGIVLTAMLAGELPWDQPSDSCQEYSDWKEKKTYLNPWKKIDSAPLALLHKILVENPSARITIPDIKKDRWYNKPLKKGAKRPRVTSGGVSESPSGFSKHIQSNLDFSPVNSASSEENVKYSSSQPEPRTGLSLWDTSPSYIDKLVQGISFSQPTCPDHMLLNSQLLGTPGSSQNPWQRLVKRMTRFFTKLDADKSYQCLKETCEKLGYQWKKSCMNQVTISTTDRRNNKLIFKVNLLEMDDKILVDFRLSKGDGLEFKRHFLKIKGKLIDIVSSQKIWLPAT

[2] = target: T2, Dual specificity mitogen-activated protein kinase kinase 5 (Homo sapiens) (UniProt Q13163); test: Concentration-dependent inhibition of ERK5 phosphorylation shift in EGF-stimulated HeLa cells; type: functional, cell-based; settings: filed as antagonist
T2 sequence (whole entry): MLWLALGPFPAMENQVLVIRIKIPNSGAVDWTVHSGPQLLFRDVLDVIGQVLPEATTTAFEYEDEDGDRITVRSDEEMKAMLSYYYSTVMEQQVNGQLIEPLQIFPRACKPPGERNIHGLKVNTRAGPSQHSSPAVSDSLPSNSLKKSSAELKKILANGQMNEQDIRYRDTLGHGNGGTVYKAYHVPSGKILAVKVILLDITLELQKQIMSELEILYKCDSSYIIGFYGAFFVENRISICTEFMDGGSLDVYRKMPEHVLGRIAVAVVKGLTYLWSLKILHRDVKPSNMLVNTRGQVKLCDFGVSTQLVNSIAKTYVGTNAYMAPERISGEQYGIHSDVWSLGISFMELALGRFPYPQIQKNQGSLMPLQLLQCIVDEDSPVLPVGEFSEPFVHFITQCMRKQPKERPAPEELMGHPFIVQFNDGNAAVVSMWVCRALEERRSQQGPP

[3] = target: Inhibitor of nuclear factor kappa-B kinase subunit beta (Homo sapiens, UniProt O14920)
Inhibitor of nuclear factor kappa-B kinase subunit beta, sequence (O14920 whole entry): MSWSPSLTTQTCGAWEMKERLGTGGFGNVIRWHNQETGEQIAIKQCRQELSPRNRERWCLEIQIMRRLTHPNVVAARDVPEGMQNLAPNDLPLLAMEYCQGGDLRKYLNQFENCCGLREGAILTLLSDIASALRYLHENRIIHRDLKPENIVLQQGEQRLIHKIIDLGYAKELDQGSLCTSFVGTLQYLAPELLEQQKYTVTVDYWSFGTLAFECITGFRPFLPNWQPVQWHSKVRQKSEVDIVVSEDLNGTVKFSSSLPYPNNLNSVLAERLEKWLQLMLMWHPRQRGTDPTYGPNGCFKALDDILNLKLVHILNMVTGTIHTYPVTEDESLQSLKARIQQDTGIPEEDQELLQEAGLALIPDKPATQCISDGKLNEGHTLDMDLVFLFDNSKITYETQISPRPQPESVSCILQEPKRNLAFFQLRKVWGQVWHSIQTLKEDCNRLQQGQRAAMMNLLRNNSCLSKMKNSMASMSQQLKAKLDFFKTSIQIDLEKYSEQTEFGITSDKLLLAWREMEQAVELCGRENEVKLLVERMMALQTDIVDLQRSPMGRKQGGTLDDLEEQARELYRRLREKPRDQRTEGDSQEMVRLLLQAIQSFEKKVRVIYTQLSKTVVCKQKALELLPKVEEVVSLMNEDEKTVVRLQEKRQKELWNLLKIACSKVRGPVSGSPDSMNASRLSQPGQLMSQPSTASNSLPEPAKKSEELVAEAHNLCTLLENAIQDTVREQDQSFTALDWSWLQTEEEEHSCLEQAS

[4] = target: T3, Cyclin-G-associated kinase (Homo sapiens) (UniProt O14976); test: Percentage GAK activity remaining in the presence of 10uM inhibitor
T3 sequence (whole entry): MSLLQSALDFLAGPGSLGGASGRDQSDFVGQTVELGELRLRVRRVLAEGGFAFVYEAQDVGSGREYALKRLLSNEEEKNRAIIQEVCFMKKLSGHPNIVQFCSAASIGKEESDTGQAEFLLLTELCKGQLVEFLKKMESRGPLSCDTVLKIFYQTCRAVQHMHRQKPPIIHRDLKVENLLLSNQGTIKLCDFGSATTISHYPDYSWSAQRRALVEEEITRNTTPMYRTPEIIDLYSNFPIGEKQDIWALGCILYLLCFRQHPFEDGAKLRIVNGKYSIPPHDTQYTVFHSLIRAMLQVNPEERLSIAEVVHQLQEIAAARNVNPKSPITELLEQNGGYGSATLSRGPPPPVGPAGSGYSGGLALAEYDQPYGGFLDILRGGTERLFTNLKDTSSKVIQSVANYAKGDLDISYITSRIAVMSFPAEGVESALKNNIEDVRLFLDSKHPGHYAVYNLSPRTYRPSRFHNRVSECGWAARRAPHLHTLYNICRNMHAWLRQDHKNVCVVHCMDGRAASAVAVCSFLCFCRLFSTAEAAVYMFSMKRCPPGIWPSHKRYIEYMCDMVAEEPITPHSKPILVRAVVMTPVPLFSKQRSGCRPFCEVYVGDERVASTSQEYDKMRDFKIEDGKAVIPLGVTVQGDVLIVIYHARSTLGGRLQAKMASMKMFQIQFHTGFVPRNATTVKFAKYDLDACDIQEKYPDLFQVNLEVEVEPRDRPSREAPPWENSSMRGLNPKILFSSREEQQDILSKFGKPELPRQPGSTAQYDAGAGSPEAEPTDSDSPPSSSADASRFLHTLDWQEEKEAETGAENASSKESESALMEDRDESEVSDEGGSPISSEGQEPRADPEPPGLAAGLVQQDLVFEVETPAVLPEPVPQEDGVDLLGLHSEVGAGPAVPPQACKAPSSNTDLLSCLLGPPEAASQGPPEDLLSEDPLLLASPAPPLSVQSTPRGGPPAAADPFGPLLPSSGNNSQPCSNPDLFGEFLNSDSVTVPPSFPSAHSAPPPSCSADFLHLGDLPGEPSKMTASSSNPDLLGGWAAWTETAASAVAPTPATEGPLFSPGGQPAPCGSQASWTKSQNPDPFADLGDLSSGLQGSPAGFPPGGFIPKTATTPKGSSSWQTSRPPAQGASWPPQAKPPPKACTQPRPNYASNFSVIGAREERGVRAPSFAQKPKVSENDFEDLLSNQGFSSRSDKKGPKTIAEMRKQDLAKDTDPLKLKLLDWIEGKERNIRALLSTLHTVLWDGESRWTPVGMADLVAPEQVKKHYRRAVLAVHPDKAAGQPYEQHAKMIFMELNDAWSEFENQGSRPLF

[5] = target: T4, Receptor-interacting serine/threonine-protein kinase 2 (Homo sapiens, UniProt O43353); test: Percentage RIP2 activity remaining in the presence of 10uM inhibitor; settings: filed as antagonist
T4 sequence (O43353 whole entry): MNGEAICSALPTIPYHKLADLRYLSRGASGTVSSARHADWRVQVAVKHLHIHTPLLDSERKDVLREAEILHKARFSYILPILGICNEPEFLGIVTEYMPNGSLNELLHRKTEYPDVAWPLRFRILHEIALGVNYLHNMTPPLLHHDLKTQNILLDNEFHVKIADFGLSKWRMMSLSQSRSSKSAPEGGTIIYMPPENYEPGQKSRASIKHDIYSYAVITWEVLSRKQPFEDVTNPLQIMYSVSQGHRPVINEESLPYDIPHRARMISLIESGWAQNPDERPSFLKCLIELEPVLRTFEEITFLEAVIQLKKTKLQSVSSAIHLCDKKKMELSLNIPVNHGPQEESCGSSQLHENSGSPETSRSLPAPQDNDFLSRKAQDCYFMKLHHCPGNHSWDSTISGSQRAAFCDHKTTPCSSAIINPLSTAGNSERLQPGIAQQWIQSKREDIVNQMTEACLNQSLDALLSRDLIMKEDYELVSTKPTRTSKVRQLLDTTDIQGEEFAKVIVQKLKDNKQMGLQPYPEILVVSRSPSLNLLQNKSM

[6] = target: T4, Receptor-interacting serine/threonine-protein kinase 2; test: Inhibition of RIP2 in the presence of 100uM ATP
[7] = target: Proto-oncogene tyrosine-protein kinase LCK (Mus musculus, UniProt P06240); test: Inhibition of Lck in the presence of 50uM ATP
Proto-oncogene tyrosine-protein kinase LCK, sequence (P06240 whole entry): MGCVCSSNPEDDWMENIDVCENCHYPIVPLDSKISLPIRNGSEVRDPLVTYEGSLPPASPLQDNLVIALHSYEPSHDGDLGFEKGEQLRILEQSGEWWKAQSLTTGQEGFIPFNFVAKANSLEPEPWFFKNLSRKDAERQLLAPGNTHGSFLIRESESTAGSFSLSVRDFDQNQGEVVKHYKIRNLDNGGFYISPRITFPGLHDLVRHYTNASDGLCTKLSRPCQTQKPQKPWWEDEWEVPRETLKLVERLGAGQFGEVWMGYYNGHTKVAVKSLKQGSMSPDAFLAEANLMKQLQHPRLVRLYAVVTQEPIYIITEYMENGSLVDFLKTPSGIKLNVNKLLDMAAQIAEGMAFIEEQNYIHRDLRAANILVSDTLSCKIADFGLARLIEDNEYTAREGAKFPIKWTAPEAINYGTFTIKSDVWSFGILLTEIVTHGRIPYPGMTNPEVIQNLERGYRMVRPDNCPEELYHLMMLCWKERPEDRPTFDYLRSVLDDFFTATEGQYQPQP

[8] = target: Mitogen-activated protein kinase 8 (Homo sapiens, UniProt P45983, M108G); test: Inhibition of JNK-M108G in the presence of 20uM ATP
Mitogen-activated protein kinase 8 (Homo sapiens, UniProt P45983, M108G), sequence (P45983 whole entry M108G): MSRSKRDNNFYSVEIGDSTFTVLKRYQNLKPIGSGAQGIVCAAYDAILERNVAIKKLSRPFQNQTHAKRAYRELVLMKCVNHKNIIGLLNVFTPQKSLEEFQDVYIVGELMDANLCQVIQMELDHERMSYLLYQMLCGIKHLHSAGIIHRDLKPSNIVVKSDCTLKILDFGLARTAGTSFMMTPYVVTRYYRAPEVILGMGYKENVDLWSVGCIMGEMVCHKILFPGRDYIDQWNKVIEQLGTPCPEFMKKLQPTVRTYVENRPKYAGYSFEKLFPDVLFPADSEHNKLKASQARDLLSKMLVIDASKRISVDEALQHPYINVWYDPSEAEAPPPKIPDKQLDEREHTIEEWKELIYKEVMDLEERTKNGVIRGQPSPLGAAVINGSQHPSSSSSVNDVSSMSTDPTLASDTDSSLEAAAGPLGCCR

[9] = target: Mitogen-activated protein kinase 8 (Homo sapiens, UniProt P45983, M108A); test: Inhibition of JNK-M108A in the presence of 20uM ATP
Mitogen-activated protein kinase 8 (Homo sapiens, UniProt P45983, M108A), sequence (P45983 whole entry M108A): as the sequence (P45983 whole entry M108G) above, with G108A counted along it

[10] = target: Proto-oncogene tyrosine-protein kinase Src (Gallus gallus, UniProt P00523); test: Inhibition of Src in the presence of 50uM ATP
[11] = target: T5, Serine/threonine-protein kinase TBK1 (Homo sapiens) (UniProt Q9UHD2); test: Percentage TBK1 activity remaining in the presence of 1uM inhibitor
T5 sequence (whole entry): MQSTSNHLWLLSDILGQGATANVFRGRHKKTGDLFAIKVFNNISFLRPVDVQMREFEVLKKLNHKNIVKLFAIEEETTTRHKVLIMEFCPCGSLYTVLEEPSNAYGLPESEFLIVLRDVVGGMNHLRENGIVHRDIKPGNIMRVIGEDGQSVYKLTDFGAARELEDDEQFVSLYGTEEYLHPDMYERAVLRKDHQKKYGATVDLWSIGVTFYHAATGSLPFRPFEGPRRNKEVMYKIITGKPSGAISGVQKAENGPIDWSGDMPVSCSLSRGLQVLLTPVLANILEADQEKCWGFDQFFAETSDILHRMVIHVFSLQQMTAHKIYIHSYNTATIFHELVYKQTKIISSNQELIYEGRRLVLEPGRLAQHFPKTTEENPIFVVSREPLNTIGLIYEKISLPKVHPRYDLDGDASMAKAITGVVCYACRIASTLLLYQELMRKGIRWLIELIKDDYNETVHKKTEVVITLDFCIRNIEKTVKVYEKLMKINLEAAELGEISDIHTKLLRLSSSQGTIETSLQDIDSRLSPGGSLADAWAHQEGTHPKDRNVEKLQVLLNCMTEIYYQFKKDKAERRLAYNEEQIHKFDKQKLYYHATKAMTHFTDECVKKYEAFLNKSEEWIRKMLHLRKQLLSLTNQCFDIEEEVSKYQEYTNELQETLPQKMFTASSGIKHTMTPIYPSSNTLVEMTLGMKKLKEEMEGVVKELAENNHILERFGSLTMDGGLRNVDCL

[12] = target: T6, Inhibitor of nuclear factor kappa-B kinase subunit epsilon (Homo sapiens) (UniProt Q14164); test: Percentage IKKepsilon activity remaining in the presence of 1uM inhibitor
T6 sequence (whole entry): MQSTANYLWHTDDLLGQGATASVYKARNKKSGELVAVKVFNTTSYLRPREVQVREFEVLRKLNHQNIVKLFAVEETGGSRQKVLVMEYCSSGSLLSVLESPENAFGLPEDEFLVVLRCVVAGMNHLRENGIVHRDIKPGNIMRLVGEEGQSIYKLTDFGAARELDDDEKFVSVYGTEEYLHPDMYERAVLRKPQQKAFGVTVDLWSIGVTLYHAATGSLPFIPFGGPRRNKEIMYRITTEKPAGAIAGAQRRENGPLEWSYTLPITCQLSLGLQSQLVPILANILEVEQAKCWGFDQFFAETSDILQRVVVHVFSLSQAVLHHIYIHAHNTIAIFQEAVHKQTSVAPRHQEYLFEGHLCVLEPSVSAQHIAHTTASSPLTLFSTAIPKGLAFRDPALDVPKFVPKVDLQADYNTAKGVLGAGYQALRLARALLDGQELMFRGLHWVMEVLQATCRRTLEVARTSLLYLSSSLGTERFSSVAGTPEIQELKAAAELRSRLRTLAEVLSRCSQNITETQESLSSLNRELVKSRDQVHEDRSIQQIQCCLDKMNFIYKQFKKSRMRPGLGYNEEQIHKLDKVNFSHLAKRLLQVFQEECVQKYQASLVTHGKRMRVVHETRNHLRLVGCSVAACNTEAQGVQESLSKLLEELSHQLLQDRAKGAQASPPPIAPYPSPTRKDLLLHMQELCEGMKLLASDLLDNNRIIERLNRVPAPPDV

[13] = target: T1, Serine/threonine-protein kinase Chk1 (Homo sapiens); test: Percentage CHK1 activity remaining in the presence of 2uM inhibitor
[14] = target: T4, Receptor-interacting serine/threonine-protein kinase 2; test: Percentage RIP2 activity remaining in the presence of 1uM inhibitor; settings: filed as antagonist
[15] = target: Tyrosine-protein kinase CSK (Homo sapiens, UniProt P41240); test: Inhibition of CSK in the presence of 20uM ATP
Tyrosine-protein kinase CSK, sequence (P41240 whole entry): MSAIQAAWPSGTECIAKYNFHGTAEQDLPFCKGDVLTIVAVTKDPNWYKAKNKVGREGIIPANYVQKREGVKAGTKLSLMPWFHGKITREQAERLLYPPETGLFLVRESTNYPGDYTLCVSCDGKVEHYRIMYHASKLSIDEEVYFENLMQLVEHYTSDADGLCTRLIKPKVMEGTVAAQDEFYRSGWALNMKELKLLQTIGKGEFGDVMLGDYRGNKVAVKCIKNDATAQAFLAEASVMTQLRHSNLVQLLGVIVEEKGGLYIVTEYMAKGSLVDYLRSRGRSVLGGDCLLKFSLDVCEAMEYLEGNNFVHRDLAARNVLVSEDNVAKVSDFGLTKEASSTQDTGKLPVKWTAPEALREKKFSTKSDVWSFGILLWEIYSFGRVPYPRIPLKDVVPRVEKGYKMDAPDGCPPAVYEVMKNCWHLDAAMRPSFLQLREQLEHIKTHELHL

[16] = target: T3, Cyclin-G-associated kinase (Homo sapiens); test: Percentage GAK activity remaining in the presence of 1uM inhibitor; settings: filed as antagonist

## Cc1cnc(-c2cnc(NCCNc3ccc(C#N)cn3)nc2-c2ccc(Cl)cc2Cl)[nH]1
[1]
  Activity: 97%

## O=C(NOC[C@H](O)CO)c1ccc(F)c(F)c1Nc1ccc(I)cc1Cl
[2]
  Activity: Antagonist

## NC(=O)c1sc(-c2ccsc2)cc1N
[3]
  IC50: 2 µM (antagonist)

## CNC(=O)c1cc(Oc2ccc(NC(=O)Nc3ccc(Cl)c(C(F)(F)F)c3)cc2)ccn1
[4]
  Activity: 90%
[5]
  Activity: 26%

## CC(C)(C)n1nc(-c2cccc3ccccc23)c2c(N)ncnc21
[6]
  IC50: 0.12 µM (antagonist)
[7]
  IC50: 0.66 µM (antagonist)
[8]
  IC50: 0.62 µM (antagonist)
[9]
  IC50: 0.27 µM (antagonist)
[10]
  IC50: 0.34 µM (antagonist)

## O=C(NOCC1CC1)c1ccc(F)c(F)c1Nc1ccc(I)cc1Cl
[2]
  Activity: Antagonist

## CC(C)(C(N)=O)C(=O)NCCCNc1nc(Nc2cccc(NC(=O)N3CCCC3)c2)ncc1Br
[11]; filed as antagonist
  Activity: 32%
[12]; filed as antagonist
  Activity: 37%
[13]
  Activity: 71%

## O=c1[nH]c2ccccc2n1C1CCN(Cc2ccc(-c3nc4cc5[nH]cnc5cc4nc3-c3ccccc3)cc2)CC1
[11]
  Activity: 101%
[12]
  Activity: 87%

## Cc1ccc(-c2nn(C(C)(C)C)c3ncnc(N)c23)cc1
[6]
  IC50: 0.026 µM (antagonist)
[14]
  Activity: 9%
[15]
  IC50: 0.64 µM (antagonist)
[16]
  Activity: 12%

## Oc1ccc(-c2nc(-c3ccc(F)cc3)c(-c3ccncc3)[nH]2)cc1
[14]
  Activity: 7%
[16]
  Activity: 0%
